# Reference: patent publication US6905706B2, “Medicinal herbal extract carpediol for treating depression” (Swedish Herbal Institute, priority 2002, dated 2005)
# Assay: Effect of co-administered extracts on the pharmacokinetics of theophylline in rats
# Details: male, Wistar, rat, in vivo; for Cmax: Cmax of Theophylline; for AUC(0-inf): AUC0-∞ of Theophylline; for MRT: MRT of Theophylline
# Method: Carpediol spissum (Batch No Ex 20404); Swedish Herbal Institute, Gothenburg, Sweden) as described above in Example 1. […] It was analyzed for purity by HPLC, Capillary electrophoresis, ^1H-NMR and ^13C-NMR. • (e) Internal standard: Methyl-4-hydroxybenzoate 99%, F.W. 152.15 Aldrich. • (f) Water, demonized and distilled. • (g) Water for High Performance Capillary Electrophoresis (HPCE), HEWLETT-PACKARD. • (h) Buffer pH=9.3 for HPCE (50 mM Borate). • (i) 0.1N Sodium Hydroxide Solution for HPCE. • (j) Chloroform HPLC grade. • (k) 2-Propanol spectrophotometric grade. • (l) Methanol Chromasorv.
# Animals—In this study, 144 time-mated male Wistar rats were used. Breeder: Institute of Fine Organic Chemistry of the National Academy of Science, Yerevan. The initial weight of the animals: 130-170 g (mean weight 149.93±12.4 g). […] All animals were clinically examined upon arrival and any animal showing signs of abnormality or disease was excluded. Animals considered unsuitable for the study were replaced before the start. No animal was replaced following the start of the study.
# Dosage and Administration—An appropriate amount of herbal extract was dissolved in distilled water and given at 10:00-10:30 am by oral gavage. Suspensions were shaken gently before oral administration. Suspensions were prepared fresh every day. Control animals were given an appropriate volume of drinking water. Blood samples from rats receiving the carrier only were also analyzed.
# Groups of six animals were treated orally with water (10 ml×2 times per day) for three days. 60 minutes after last administration of water, a solution of Aminophylline (10 ml/kg) was given to each animal in dose of 240 mg/kg (corresponding to 192 mg/kg of Theophylline) and blood samples were taken 0.25, 0.5, 1.0, 2.0, 4.0, 6.0 and 8.0 hours after the theophylline administration. A separate group of animals was used for each time point.
# It was administered orally in a volume of 10 ml/kg of body weight. Freshly prepared extract was administered two times daily for 3 consecutive days. Single dose—25 mg/kg, daily dose—50 mg/kg. 60 minutes after last administration, a water solution of Aminophylline (10 ml/kg) was given to each animal in dose of 240 mg/kg (corresponding to 192 mg/kg of Theophylline) and blood samples were taken 0.25, 0.5, 1.0, 2.0, 4.0, 6.0 and 8.0 hours after the theophylline administration. A separate group of animals was used for each time point.
# One tablet of Jarsin 300 was suspended in 10 ml of water and administered two times daily for 3 consecutive days. 60 minutes after last administration, water solution of Aminophylline (10 ml/kg) was given to each animal in dose of 240 mg/kg (corresponding to 192 mg/kg of Theophylline) and blood samples were taken 0.25, 0.5, 1.0, 2.0, 4.0, 6.0 and 8.0 hours after the theophylline administration. A separate group of animals was used for each time point.
# Sampling of blood and sample preparation—Animals were sacrificed by laboratory guillotine. Following decapitation, blood was collected separately in centrifuge tubes and centrifuged at 3000 rpm for 10 min. Blood serum was separated and 50 μl was taken for theophylline assay. Conservation of the samples: the centrifuge tubes were closed with caps, frozen and stored in a freezer for 1-3 days prior to bio-assay.
# Analytical Method: Capillary Electrophoresis—A modified capillary electrophoresis method was used, using an internal standard and as a mobile phase 50 mM borate buffer (pH 9.3) without SDS.
# Pre-assay preparation—The Ramzan et al. method (52) of extraction of theophylline from serum was modified as follows. 50 μl of blood serum was added to 10 μl of an internal standard methanol solution (methyl-paraben, 60 μg/ml) in centrifuge tube to obtain final concentration of methyl paraben 10 μg/ml. The solution was vortexed vigorously for 10 sec and 1 ml of solvent system of isopropanol. and chloroform in a 5:95 ratio was added for extraction.
# [1] = Concentration of Theophylline in Rat Serum, Mean, Group 2 (CRE pretreatment 3 days), aminophylline 240 mg/kg p.o., mean n=6
# [2] = Concentration of Theophylline in Rat Serum, Mean, Group 3 (Jarsin 300 pretreatment 3 days), aminophylline 240 mg/kg p.o., mean n=6
# [3] = po, 240 mg/kg, Group 2 (CRE pretreatment), rats, calculated by mean concentrations
# [4] = po, 240 mg/kg, Mean, Group 1 (water control), rats, mean of 6 series (column A)
# [5] = po, 240 mg/kg, Mean, Group 2 (CRE pretreatment), rats, mean of 6 series (column A)
# [6] = po, 240 mg/kg, Mean, Group 3 (Jarsin 300 pretreatment), rats, mean of 6 series (column A)
# [7] = po, Group 3 (Jarsin 300 pretreatment), rats, calculated by mean concentrations
# [8] = po, Mean, Group 3 (Jarsin 300 pretreatment), rats, mean of 6 series (column A)
# [9] = po, Mean, Group 2 (CRE pretreatment), rats, mean of 6 series (column A)
compound,measurement,setting,value
"Cn1c(=O)c2[nH]cnc2n(C)c1=O [Theophylline, 1,3-dimethylxantin]",concentration at 480 min,"240 mg/kg, Level of theophylline in serum after 480 minutes, Group 1 (water control), rats",~51000 ng/mL
same,Cmax,"Group 2 (CRE pretreatment), rats, calculated by mean concentrations, 60 minutes",142000 ng/mL
same,Cmax,"Group 3 (Jarsin 300 pretreatment), rats, calculated by mean concentrations, 60 minutes",41600 ng/mL
same,concentration at 60 min,"Concentration of Theophylline in Rat Serum, Group 2 (CRE pretreatment 3 days), aminophylline 240 mg/kg p.o., single rat",109000 ng/mL
same,concentration at 15 min,"Concentration of Theophylline in Rat Serum, Group 3 (Jarsin 300 pretreatment 3 days), aminophylline 240 mg/kg p.o., single rat",6640 ng/mL
same,concentration at 15 min,[1],128000 ng/mL
same,concentration at 30 min,[1],138000 ng/mL
same,concentration at 60 min,[1],142000 ng/mL
same,concentration at 120 min,[1],130000 ng/mL
same,concentration at 240 min,[1],103000 ng/mL
same,concentration at 360 min,[1],71000 ng/mL
same,concentration at 480 min,"Concentration of Theophylline in Rat Serum, Mean, Group 2 (CRE pretreatment 3 days), aminophylline 240 mg/kg p.o., 480 min, mean n=6",31800 ng/mL
same,concentration at 15 min,[2],5170 ng/mL
same,concentration at 30 min,[2],25500 ng/mL
same,concentration at 60 min,[2],41600 ng/mL
same,concentration at 120 min,[2],31100 ng/mL
same,concentration at 240 min,[2],16500 ng/mL
same,concentration at 360 min,[2],15700 ng/mL
same,concentration at 480 min,"Concentration of Theophylline in Rat Serum, Mean, Group 3 (Jarsin 300 pretreatment 3 days), aminophylline 240 mg/kg p.o., 480 min, mean n=6",9280 ng/mL
same,concentration at 480 min,"Theophylline concentration in serum after 480 minutes, Group 2 (rats treated with CRE)",~32000 ng/mL
same,concentration at 480 min,"Theophylline concentration in serum after 480 minutes, Group 3 (rats treated with Jarsin 300)",~9300 ng/mL
same,AUC(0-inf),"po, 240 mg/kg, Group 1 (water control), rats, single series",1090 µg·h/mL
same,AUC(0-inf),[3],956 µg·h/mL
same,AUC(0-inf),"po, 240 mg/kg, Mean, Group 1 (water control), rats, mean of 6 series",1020 µg·h/mL
same,AUC(0-inf),[4],1020 ± 109 µg·h/mL
same,AUC(0-inf),[5],920 ± 128 µg·h/mL
same,AUC(0-inf),"po, 240 mg/kg, Mean, Group 3 (Jarsin 300 pretreatment), rats, mean of 6 series",214 µg·h/mL
same,Cmax,[4],195000 ng/mL
same,Cmax,[5],169000 ± 14400 ng/mL
same,Cmax,[6],43900 ng/mL
same,MRT,"po, 240 mg/kg, Group 1 (water control), rats, calculated by mean concentrations",6.83 h
same,MRT,[3],5.14 h
same,MRT,[4],6.62 h
same,MRT,[5],4.45 ± 0.696 h
same,MRT,[6],5.44 h
same,half-life,"po, 240 mg/kg, T1/2 of Theophylline, Group 1 (water control), rats, calculated by mean concentrations",4.66 h
same,half-life,"po, 240 mg/kg, T1/2 of Theophylline, Group 2 (CRE pretreatment), rats, calculated by mean concentrations",3.39 h
same,half-life,"po, 240 mg/kg, T1/2 of Theophylline, Mean, Group 2 (CRE pretreatment), rats, mean of 6 series (column A)",2.81 ± 0.404 h
same,half-life,"po, 240 mg/kg, t1/2 of Theophylline, Mean, Group 1 (water control), rats, mean of 6 series (column A)",4.5 h
same,half-life,"po, 240 mg/kg, t1/2 of Theophylline, Mean, Group 3 (Jarsin 300 pretreatment), rats, mean of 6 series (column A)",3.55 h
same,AUC(0-inf),"po, Group 1 (water control), rats, calculated by mean concentrations",1030 µg·h/mL
same,AUC(0-inf),[7],208 µg·h/mL
same,AUC(0-inf),"po, Mean, Group 2 (CRE pretreatment), rats, mean of 6 series",920 µg·h/mL
same,AUC(0-inf),[8],214 ± 31 µg·h/mL
same,Cmax,"po, Group 2 (CRE pretreatment), rats, single series",158000 ng/mL
same,Cmax,"po, Group 3 (Jarsin 300 pretreatment), rats, calculated by mean concentrations, 60 minutes",41600 ng/mL
same,Cmax,[9],169000 ng/mL
same,Cmax,[8],43900 ± 8490 ng/mL
same,MRT,[7],5.36 h
same,MRT,[9],4.45 h
same,MRT,[8],5.44 ± 0.559 h
same,half-life,"po, T1/2 of Theophylline, Group 3 (Jarsin 300 pretreatment), rats, calculated by mean concentrations",3.43 h
same,half-life,"po, T1/2 of Theophylline, Mean, Group 2 (CRE pretreatment), rats, mean of 6 series (column A)",2.81 h
same,half-life,"po, t1/2 of Theophylline, Mean, Group 3 (Jarsin 300 pretreatment), rats, mean of 6 series (column A)",3.55 ± 0.549 h
